Laboratory results reported in US20250388592A1 (REMYND N.V., priority 2022, published 2025).

Tested on: M17_3TAU(P301L) cells
Assay: TAU-induced cytotoxicity (LDH) in the neuroblastoma tauopathy model
Type: cell-based
Conditions: Homo sapiens, 168 h, inhibition of TAU-induced toxicity, 7 days retinoic acid differentiation, LDH readout
Source text: A TAU expression plasmid was constructed by sub-cloning the cDNA encoding for human TAU-P301L protein, wherein proline at position 301 is substituted by a leucine residue, into mammalian expression vector pcDNA3.1 resulting in the plasmid pcDNA3.1-TAUP301L. Plasmids pcDNA3.1 and pcDNA3.1-TAU P301L were transfected into human neuroblastoma cells (BE-M17; ATCC No. CRL-2267™) using lipofectamine reagent and subsequently, independent clonal cell lines with the plasmids stably integrated into the genome were selected by antibiotic resistance selection (Geneticin (G418)), resulting in cell lines M17.pcDNA3 and M17_3TAUP301L. Expression of the TAUP301 L gene in the M17_3TAUP301 L cells was confirmed by Western blot analysis.
Differentiation of the cells with RA leads to phosphorylation and subsequent aggregation of TAU, inducing a tauopathy in these cells. Cytotoxicity of cells was measured by quantification of lactate dehydrogenase (LDH) levels. In dead cells LDH is leaked out of the cells into the medium due to a loss of plasma-membrane integrity.
Briefly, 3 days preceding the experiment pre-cultures of M17.pcDNA3 and M17_3TAU(P301L) cells were prepared, starting from a stock culture, at a density of 50.000-100.000 cells/cm2 in detection medium (Optimem Reduced Serum without phenol red (Gibco, Cat. 31985-047) supplemented with 1% fetal calf serum (FCS), 1 mM sodium pyruvate, 1×non-essential amino acids (NEAA), 500 μg/ml G418 and 0.5×antibiotic/antimycotic (ABAM)). At the day of the experiment these precultures were diluted to ˜[…] in detection medium without FCS and 60 μL of this suspension is dispensed per well into a 96-well microtiter plate. After 3 hours of incubation at 37° C./5% C02 an equal volume of detection medium containing 2.5 μM RA was added and subsequently incubated for 7 days at 37° C./5% CO2. After 7 days, LDH activity was determined using the Promega Cytotox 96 Non-Radioactive cytotoxicity assay (Cat. G1780), according the manufacturer's instructions. Cytotoxicity is measured as the ratio of LDH increase in the supernatant divided by the LDH increase in the total cell suspension (sum of the LDH measured in cells and supernatant). Toxicity was determined after 7 days of differentiation with retinoic acid in M17_3TAU(P301 L) cells compared to M17.pcDNA3 cells.
The M17_3TAU(P301L) cell line makes it possible to assess the ability of novel compounds to inhibit TAU-induced cytotoxicity. […] Compounds were tested for their ability to hamper TAU-induced toxicity at different concentrations, ranging from low non-effective concentrations to high potent concentrations. Afterwards, the dose-dependent inhibition curve was used to calculate their EC50 (Table 3B).

O=C(Cc1ccc(F)cc1)N1CC2(CN(CCCc3ccccc3)C2)C1 [Cpd B001, 2-(4-fluorophenyl)-1-(6-(3-phenylpropyl)-2,6-diazaspiro[3.3]heptan-2-yl)ethanone]
EC50: 10.7 nM

O=C(Cc1ccc(F)cc1)N1CC2(CN(Cc3ccccc3)C2)C1 [Cpd B002, 1-(6-benzyl-2,6-diazaspiro[3.3]heptan-2-yl)-2-(4-fluorophenyl)ethanone]
EC50: 9.52 nM

O=C(Cc1ccc(Cl)cc1)N1CC2(CN(Cc3ccccc3)C2)C1 [Cpd B003, 1-(6-benzyl-2,6-diazaspiro[3.3]heptan-2-yl)-2-(4-chlorophenyl)ethanone]
EC50: 6.97 nM

O=C(Cc1ccc(Cl)cc1)N1CC2(CN(Cc3ccc(Cl)cc3)C2)C1 [Cpd B004, 1-(6-(4-chlorobenzyl)-2,6-diazaspiro[3.3]heptan-2-yl)-2-(4-chlorophenyl)ethanone]
EC50: 2.86 nM

COc1cc(CN2CC3(C2)CN(C(=O)Cc2ccc(Cl)cc2)C3)ccn1 [Cpd B005, 2-(4-chlorophenyl)-1-(6-((2-methoxypyridin-4-yl)methyl)-2,6-diazaspiro[3.3]heptan-2-yl)ethanone]
EC50: 162 nM

Cc1ccccc1CN1CC2(C1)CN(C(=O)Cc1ccc(Cl)cc1)C2 [Cpd B006, 2-(4-chlorophenyl)-1-(6-(2-methylbenzyl)-2,6-diazaspiro[3.3]heptan-2-yl)ethanone]
EC50: 2.91 nM

O=C(Cc1ccc(F)c(F)c1)N1CC2(CN(Cc3ccccc3)C2)C1 [Cpd B007, 1-(6-benzyl-2,6-diazaspiro[3.3]heptan-2-yl)-2-(3,4-difluorophenyl)ethanone]
EC50: 4.16 nM

COc1cccc(CN2CC3(C2)CN(C(=O)Cc2ccc(F)cc2)C3)c1 [Cpd B008, 2-(4-Fluoro-phenyl)-1-[6-(3-methoxy-benzyl)-2,6-diaza-spiro[3.3]hept-2-yl]-ethanone]
EC50: 4 nM

Cc1ccc(CN2CC3(C2)CN(C(=O)Cc2ccc(F)cc2)C3)cc1 [Cpd B009, 2-(4-Fluoro-phenyl)-1-[6-(4-methyl-benzyl)-2,6-diaza-spiro[3.3]hept-2-yl]-ethanone]
EC50: 1.06 nM

O=C(Cc1ccc(F)cc1)N1CC2(CN(Cc3ccccn3)C2)C1 [Cpd B010, 2-(4-Fluoro-phenyl)-1-(6-pyridin-2-ylmethyl-2,6-diaza-spiro[3.3]hept-2-yl)-ethanone]
EC50: 47.5 nM

O=C(Cc1ccc(F)cc1)N1CC2(CN(Cc3cccc(Cl)c3)C2)C1 [Cpd B011, 1-[6-(3-Chloro-benzyl)-2,6-diaza-spiro[3.3]hept-2-yl]-2-(4-fluoro-phenyl)-ethanone]
EC50: 2.07 nM

NC(=O)c1cccc(CN2CC3(C2)CN(C(=O)Cc2ccc(F)cc2)C3)c1 [Cpd B012, 3-{6-[2-(4-Fluoro-phenyl)-acetyl]-2,6-diaza-spiro[3.3]hept-2-ylmethyl}-benzamide]
EC50: 45.2 nM

O=C(Cc1ccc(F)cc1)N1CC2(CN(Cc3ccccc3OC(F)(F)F)C2)C1 [Cpd B013, 2-(4-Fluoro-phenyl)-1-[6-(2-trifluoromethoxy-benzyl)-2,6-diaza-spiro[3.3]hept-2-yl]-ethanone]
EC50: 6.27 nM

COC(=O)c1ccc(CN2CC3(C2)CN(C(=O)Cc2ccc(F)cc2)C3)cc1 [Cpd B014, 4-{6-[2-(4-Fluoro-phenyl)-acetyl]-2,6-diaza-spiro[3.3]hept-2-ylmethyl}-benzoic acid methyl ester]
EC50: 0.92 nM

CC(c1cccc(C(F)(F)F)c1)N1CC2(CN(C(=O)Cc3ccc(F)cc3)C2)C1 (stereo not shown) [Cpd B015, 2-(4-Fluoro-phenyl)-1-{6-[1-(3-trifluoromethyl-phenyl)-ethyl]-2,6-diaza-spiro[3.3]hept-2-yl}-ethanone]
EC50: 9.54 nM

CC(c1ccccc1)N1CC2(CN(C(=O)Cc3ccc(F)cc3)C2)C1 (stereo not shown) [Cpd B016, 2-(4-Fluoro-phenyl)-1-[6-(1-phenyl-ethyl)-2,6-diaza-spiro[3.3]hept-2-yl]-ethanone]
EC50: 5.51 nM

Cc1cccc(CN2CC3(C2)CN(C(=O)Cc2ccc(F)cc2)C3)n1 [Cpd B017, 2-(4-Fluoro-phenyl)-1-[6-(6-methyl-pyridin-2-ylmethyl)-2,6-diaza-spiro[3.3]hept-2-yl]-ethanone]
EC50: 26.7 nM

O=C(Cc1ccc(F)cc1)N1CC2(CN(Cc3ccccc3Cl)C2)C1 [Cpd B018, 1-[6-(2-Chloro-benzyl)-2,6-diaza-spiro[3.3]hept-2-yl]-2-(4-fluoro-phenyl)-ethanone]
EC50: 0.97 nM

Cc1nc(CN2CC3(C2)CN(C(=O)Cc2ccc(F)cc2)C3)cs1 [Cpd B019, 2-(4-Fluoro-phenyl)-1-[6-(2-methyl-thiazol-4-ylmethyl)-2,6-diaza-spiro[3.3]hept-2-yl]-ethanone]
EC50: 71.8 nM

Cn1ccnc1CN1CC2(C1)CN(C(=O)Cc1ccc(F)cc1)C2 [Cpd B020, 2-(4-Fluoro-phenyl)-1-[6-(1-methyl-1H-imidazol-2-ylmethyl)-2,6-diaza-spiro[3.3]hept-2-yl]-ethanone]
EC50: 422 nM

Cc1cc(CN2CC3(C2)CN(C(=O)Cc2ccc(F)cc2)C3)no1 [Cpd B021, 2-(4-Fluoro-phenyl)-1-[6-(5-methyl-isoxazol-3-ylmethyl)-2,6-diaza-spiro[3.3]hept-2-yl]-ethanone]
EC50: 167 nM

O=C(Cc1ccc(F)cc1)N1CC2(CN(Cc3cscn3)C2)C1 [Cpd B022, 2-(4-Fluoro-phenyl)-1-(6-thiazol-4-ylmethyl-2,6-diaza-spiro[3.3]hept-2-yl)-ethanone]
EC50: 149 nM

O=C(Cc1ccc(F)cc1)N1CC2(CN(CCc3cccc(C(F)(F)F)c3)C2)C1 [Cpd B023, 2-(4-Fluoro-phenyl)-1-{6-[2-(3-trifluoromethyl-phenyl)-ethyl]-2,6-diaza-spiro[3.3]hept-2-yl}-ethanone]
EC50: 18.6 nM

O=C(Cc1ccc(F)cc1)N1CC2(CN(CCc3cccc(F)c3)C2)C1 [Cpd B024, 2-(4-Fluoro-phenyl)-1-{6-[2-(3-fluoro-phenyl)-ethyl]-2,6-diaza-spiro[3.3]hept-2-yl}-ethanone]
EC50: 26.7 nM

COc1ccc(CCN2CC3(C2)CN(C(=O)Cc2ccc(F)cc2)C3)cc1 [Cpd B025, 2-(4-Fluoro-phenyl)-1-{6-[2-(4-methoxy-phenyl)-ethyl]-2,6-diaza-spiro[3.3]hept-2-yl}-ethanone]
EC50: 17.9 nM

Cc1ccc(CCN2CC3(C2)CN(C(=O)Cc2ccc(F)cc2)C3)cc1 [Cpd B026, 2-(4-Fluoro-phenyl)-1-[6-(2-p-tolyl-ethyl)-2,6-diaza-spiro[3.3]hept-2-yl]-ethanone]
EC50: 26.1 nM

O=C(Cc1ccc(F)cc1)N1CC2(CN(CCc3ccc(F)cc3)C2)C1 [Cpd B027, 2-(4-Fluoro-phenyl)-1-{6-[2-(4-fluoro-phenyl)-ethyl]-2,6-diaza-spiro[3.3]hept-2-yl}-ethanone]
EC50: 21.7 nM

Cc1cccc(CCN2CC3(C2)CN(C(=O)Cc2ccc(F)cc2)C3)c1 [Cpd B028, 2-(4-Fluoro-phenyl)-1-[6-(2-m-tolyl-ethyl)-2,6-diaza-spiro[3.3]hept-2-yl]-ethanone]
EC50: 12.9 nM

CC(C)(C(=O)c1ccccc1)N1CC2(CN(C(=O)Cc3ccc(F)cc3)C2)C1 [Cpd B029, 2-{6-[2-(4-Fluoro-phenyl)-acetyl]-2,6-diaza-spiro[3.3]hept-2-yl}-2-methyl-1-phenyl-propan-1-one]
EC50: 8.3 nM

O=C(Cc1ccc(F)cc1)N1CC2(CN(CCc3ccccc3)C2)C1 [Cpd B030, 2-(4-Fluoro-phenyl)-1-(6-phenethyl-2,6-diaza-spiro[3.3]hept-2-yl)-ethanone]
EC50: 37.7 nM

COc1cccc(CN2CC3(C2)CN(C(=O)Cc2ccc(Cl)cc2)C3)c1 [Cpd B031, 2-(4-chlorophenyl)-1-(6-(3-methoxybenzyl)-2,6-diazaspiro[3.3]heptan-2-yl)ethanone]
EC50: 2.01 nM

O=C(Cc1ccc(Cl)cc1)N1CC2(CN(Cc3ccccn3)C2)C1 [Cpd B032, 2-(4-chlorophenyl)-1-(6-(pyridin-2-ylmethyl)-2,6-diazaspiro[3.3]heptan-2-yl)ethanone]
EC50: 48.5 nM

O=C(Cc1ccc(Cl)cc1)N1CC2(CN(Cc3cccc(Cl)c3)C2)C1 [Cpd B033, 1-(6-(3-chlorobenzyl)-2,6-diazaspiro[3.3]heptan-2-yl)-2-(4-chlorophenyl)ethanone]
EC50: 2.46 nM

O=C(Cc1ccc(Cl)cc1)N1CC2(CN(Cc3ccccc3OC(F)(F)F)C2)C1 [Cpd B034, 2-(4-chlorophenyl)-1-(6-(2-(trifluoromethoxy)benzyl)-2,6-diazaspiro[3.3]heptan-2-yl)ethanone]
EC50: 6.04 nM
